From ChEMBL document CHEMBL1140010, “Discovery of novel prostaglandin analogs of PGE2 as potent and selective EP2 and EP4 receptor agonists” (Bioorg Med Chem Lett, 2007)

Columns and labels:
[1] = molecular target: T1, Prostaglandin E2 receptor EP4 subtype (Homo sapiens, UniProt P35408); experiment: Displacement of [3H]PGE2 from human EP4 receptor expressed in HEK293 cells; type: cell-based
[2] = molecular target: T2, Prostaglandin E2 receptor EP2 subtype (Homo sapiens, UniProt P43116); experiment: Displacement of [3H]PGE2 from human EP2 receptor expressed in HEK293 cells; type: cell-based
[3] = molecular target: T1, Prostaglandin E2 receptor EP4 subtype; experiment: Agonist activity at EP4 receptor expressed in HEK293 cells assessed as cAMP accumulation; type: functional, cell-based
[4] = molecular target: T2, Prostaglandin E2 receptor EP2 subtype; experiment: Agonist activity at EP2 receptor expressed in HEK293 cells assessed as cAMP accumulation; type: functional, cell-based
[5] = molecular target: T3, Prostaglandin E2 receptor EP1 subtype (Homo sapiens, UniProt P34995); experiment: Displacement of [3H]PGE2 from human EP1 receptor expressed in HEK293 cells; type: cell-based
T3 sequence (P34995 whole entry): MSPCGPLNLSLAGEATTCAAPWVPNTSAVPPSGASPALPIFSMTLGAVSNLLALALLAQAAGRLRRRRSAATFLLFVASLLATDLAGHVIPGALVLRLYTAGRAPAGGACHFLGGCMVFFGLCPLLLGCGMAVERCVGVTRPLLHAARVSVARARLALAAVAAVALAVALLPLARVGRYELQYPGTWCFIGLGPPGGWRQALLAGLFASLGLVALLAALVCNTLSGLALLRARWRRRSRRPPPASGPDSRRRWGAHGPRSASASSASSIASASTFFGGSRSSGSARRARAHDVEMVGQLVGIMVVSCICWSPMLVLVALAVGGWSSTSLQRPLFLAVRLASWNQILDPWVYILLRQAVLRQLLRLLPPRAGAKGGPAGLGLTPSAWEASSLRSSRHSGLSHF

[6] = molecular target: T4, Prostaglandin E2 receptor EP3 subtype (Homo sapiens, UniProt P43115); experiment: Displacement of [3H]PGE2 from human EP3 receptor expressed in HEK293 cells; type: cell-based
T4 sequence (P43115 whole entry): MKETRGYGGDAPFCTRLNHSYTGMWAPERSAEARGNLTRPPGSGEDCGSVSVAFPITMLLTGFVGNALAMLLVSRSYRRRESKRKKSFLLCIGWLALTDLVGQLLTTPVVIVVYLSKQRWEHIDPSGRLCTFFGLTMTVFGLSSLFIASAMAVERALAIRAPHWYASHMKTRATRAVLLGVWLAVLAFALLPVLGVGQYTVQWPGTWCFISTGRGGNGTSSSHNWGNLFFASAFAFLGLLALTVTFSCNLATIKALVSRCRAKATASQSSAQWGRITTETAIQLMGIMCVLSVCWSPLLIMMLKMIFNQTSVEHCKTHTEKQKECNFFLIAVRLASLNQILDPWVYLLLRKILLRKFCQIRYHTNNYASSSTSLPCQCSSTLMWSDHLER

[7] = Bioavailability in rat at 1 mg/kg; type: ADME, organism-based; details: in vivo
Mus musculus = experiment: Induction of ovulation in orally dosed CD1 mouse; type: functional; details: CD1, po
[8] = Half life in rat; type: ADME, organism-based; details: in vivo
[9] = Clearance in iv dosed rat; type: ADME, organism-based; details: in vivo

T2 sequence (P43116 whole entry): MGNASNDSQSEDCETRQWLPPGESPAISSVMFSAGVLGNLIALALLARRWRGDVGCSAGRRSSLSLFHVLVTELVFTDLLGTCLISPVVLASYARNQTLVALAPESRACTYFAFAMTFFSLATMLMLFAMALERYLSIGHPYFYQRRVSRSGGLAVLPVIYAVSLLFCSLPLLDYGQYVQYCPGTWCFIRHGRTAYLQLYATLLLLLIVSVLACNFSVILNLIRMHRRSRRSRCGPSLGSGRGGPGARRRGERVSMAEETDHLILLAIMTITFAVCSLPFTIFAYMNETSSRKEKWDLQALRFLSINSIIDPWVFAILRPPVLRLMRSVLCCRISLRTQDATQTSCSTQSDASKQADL
T1 sequence (P35408 whole entry): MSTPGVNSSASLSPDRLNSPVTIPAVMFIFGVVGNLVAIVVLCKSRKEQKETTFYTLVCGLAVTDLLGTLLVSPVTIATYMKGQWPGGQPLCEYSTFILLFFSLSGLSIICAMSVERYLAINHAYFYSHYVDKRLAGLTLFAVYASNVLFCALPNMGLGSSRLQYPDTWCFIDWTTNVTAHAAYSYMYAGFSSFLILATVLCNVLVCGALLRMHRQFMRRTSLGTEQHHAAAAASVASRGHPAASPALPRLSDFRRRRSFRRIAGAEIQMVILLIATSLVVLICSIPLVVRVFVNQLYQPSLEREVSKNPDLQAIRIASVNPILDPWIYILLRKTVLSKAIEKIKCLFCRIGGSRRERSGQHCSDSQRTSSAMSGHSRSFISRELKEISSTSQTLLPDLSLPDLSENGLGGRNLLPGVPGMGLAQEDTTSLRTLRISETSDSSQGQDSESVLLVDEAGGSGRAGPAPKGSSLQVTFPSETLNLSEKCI

| Ki [1] | Ki [2] | EC50 [3] | EC50 [4] | Ki [5] | Ki [6] | bioavailability [7] | half-life [8] | clearance [9] | Structure (SMILES) | ED50 (Mus musculus) |
| --- | --- | --- | --- | --- | --- | --- | --- | --- | --- | --- |
| 117 nM | 60 nM |  |  |  |  |  |  |  | C/C(=C/C=C/[C@H]1CCC(=O)N1CCc1ccc(C(=O)O)cc1)CC1CCCC1 |  |
| 29 nM | 749 nM | 0.5 nM | > 10000 nM |  |  |  |  |  | C/C(=C\C=C\[C@H]1CCC(=O)N1CCc1ccc(C(=O)O)cc1)c1ccccc1 |  |
| 2.5 nM | 126 nM | 0.002 nM | 16 nM | > 10000 nM | 9000 nM |  |  |  | CCCC[C@H](O)/C=C/[C@H]1CCC(=O)N1CCc1ccc(C(=O)O)cc1 |  |
| 181 nM | 134 nM | 15 nM | 222 nM | 10000 nM | 10000 nM |  |  |  | CCCC/C(C)=C/C=C/[C@H]1CCC(=O)N1CCc1ccc(C(=O)O)cc1 |  |
| 4 nM | 60 nM | 0.1 nM | 35 nM | 10000 nM | 10000 nM | 72.6% | 7.7 h | 2.5 mL/min/kg | CCCC/C(C)=C\C=C\[C@H]1CCC(=O)N1CCc1ccc(C(=O)O)cc1 | 1 mg/kg |
| 25 nM | 88 nM | 2 nM | 197 nM |  |  |  |  |  | CCCC/C=C\C=C\[C@H]1CCC(=O)N1CCc1ccc(C(=O)O)cc1 |  |
| 24 nM | 173 nM | 3 nM |  |  |  |  |  |  | CC/C(C)=C\C=C\[C@H]1CCC(=O)N1CCc1ccc(C(=O)O)cc1 |  |
| 45 nM | 1850 nM | 4 nM |  |  |  |  |  |  | CC(C)=C/C=C/[C@H]1CCC(=O)N1CCc1ccc(C(=O)O)cc1 |  |
|  | 29 nM |  |  |  |  |  |  |  | CCCC/C=C(C)/C=C/[C@H]1CCC(=O)N1CCc1ccc(C(=O)O)cc1 |  |

| Structure (SMILES) | Ki [1] | Ki [2] | EC50 [3] | EC50 [4] | Ki [5] | Ki [6] | bioavailability [7] | half-life [8] | clearance [9] | ED50 (Mus musculus) |
| --- | --- | --- | --- | --- | --- | --- | --- | --- | --- | --- |
| CCCC/C=C(C)/C=C\[C@H]1CCC(=O)N1CCc1ccc(C(=O)O)cc1 | 443 nM | 802 nM |  |  |  |  |  |  |  |  |
